Measurements: PubChem BioAssay (NCI)
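Cultured in 96-well plates, cells were exposed to test compound for 48 hours across five concentrations. GI50 = concentration required for 50% inhibition of growth. The concentration for full growth arrest is given as TGI.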

Columns and labels:
Assay in all cases: growth of human tumour cells (NCI), 48 h
SK-OV-3 ovarian = test system: SK-OV-3 ovarian
NCI-H23 lung = test system: NCI-H23 lung
SN12C renal = test system: SN12C renal
MCF7 breast = test system: MCF7 breast
NCI-H226 lung = test system: NCI-H226 lung
KM12 colon = test system: KM12 colon
SK-MEL-5 melanoma = test system: SK-MEL-5 melanoma
UACC-257 melanoma = test system: UACC-257 melanoma
SR leukemia = test system: SR leukemia
ACHN renal = test system: ACHN renal

SMILES	TGI (SK-OV-3 ovarian)	TGI (NCI-H23 lung)	TGI (SN12C renal)	TGI (MCF7 breast)	TGI (NCI-H226 lung)	TGI (KM12 colon)	TGI (SK-MEL-5 melanoma)	TGI (UACC-257 melanoma)	TGI (SR leukemia)	TGI (ACHN renal)	GI50 (SK-OV-3 ovarian)	GI50 (NCI-H23 lung)	GI50 (ACHN renal)	GI50 (SN12C renal)	GI50 (MCF7 breast)	GI50 (NCI-H226 lung)	GI50 (KM12 colon)	GI50 (SK-MEL-5 melanoma)	GI50 (UACC-257 melanoma)
CN(C)C(CN)CC1=C(CC(CN)N(C)C)CCC1 (stereo not drawn)	> 100 µM	> 100 µM	> 100 µM	> 100 µM	> 100 µM	> 100 µM	> 100 µM	> 100 µM	–	–	–	–	–	–	–	–	–	–	–
COc1ccc(CC(CO)NC(=O)OCc2ccccc2)cc1Oc1ccc(CC(CO)NC(=O)OCc2ccccc2)cc1 (stereo not drawn)	28.8 µM	33.8 µM	39.3 µM	–	–	26.9 µM	> 100 µM	61.4 µM	> 100 µM	–	–	–	–	–	–	–	–	–	–
Cc1ccc(S(=O)(=O)Oc2cc(N)c3c(n2)CCC3)cc1	> 100 µM	> 100 µM	> 100 µM	> 100 µM	> 100 µM	> 100 µM	> 100 µM	> 100 µM	–	> 100 µM	–	–	–	–	–	–	–	–	–
COc1ccc2c(c1)O/C(=C\c1cccc(OCC(=O)Nc3nc4c(s3)CCCC4)c1)C2=O	> 100 µM	> 100 µM	> 100 µM	> 100 µM	> 100 µM	> 100 µM	> 100 µM	> 100 µM	–	33.6 µM	> 72.6 µM	5.52 µM	4.43 µM	4.78 µM	12.8 µM	> 100 µM	10.4 µM	> 71.8 µM	> 100 µM
CC(CC(C#N)(c1ccccc1)c1ccccc1)N1CCCCC1 (stereo not drawn)	> 100 µM	> 100 µM	74.5 µM	74.7 µM	46.4 µM	49.2 µM	33.6 µM	29.6 µM	–	> 100 µM	–	–	–	–	–	–	–	–	–
COc1ccccc1NC(=O)CC(=O)N1N=C(C)C(N=Nc2ccc(S(N)(=O)=O)cc2)C1=O (stereo not drawn)	> 100 µM	> 100 µM	> 100 µM	–	> 100 µM	> 100 µM	> 100 µM	> 100 µM	> 100 µM	> 100 µM	–	–	–	–	–	–	–	–	–
O=C1/C(=C/c2ccccc2S)N=C(c2ccccc2)N1c1nc2ccc(Sc3ccccc3)cc2[nH]1	> 100 µM	> 100 µM	99.1 µM	84.5 µM	–	> 100 µM	38.6 µM	69.2 µM	–	> 100 µM	–	–	–	–	–	–	–	–	–
CCOP(=O)(OCC)C1C(CO)OC(n2ccc(=O)[nH]c2=O)C1O (stereo not drawn)	–	–	> 100 µM	–	> 100 µM	> 100 µM	> 100 µM	> 100 µM	> 100 µM	> 100 µM	–	–	–	–	–	–	–	–	–
N#Cc1c(-c2ccccc2)/c(=C\Nc2ccc(Cl)cc2)c(=O)n2c1nc1ccccc12	> 100 µM	> 100 µM	> 100 µM	> 100 µM	> 100 µM	> 100 µM	> 100 µM	> 100 µM	–	> 100 µM	–	–	–	–	–	–	–	–	–
CC(C)(C)C1=Cc2cc3cc(C(C)(C)C)[nH]c(=O)c3cc2S(=O)(=O)N1	> 100 µM	85.3 µM	> 100 µM	–	47.7 µM	94.6 µM	–	58.7 µM	61.5 µM	89.3 µM	–	–	–	–	–	–	–	–	–
COc1ccc(-c2cc(=O)c3cc4c(cc3[nH]2)OCO4)c(OC)c1OC	> 100 µM	> 100 µM	> 100 µM	–	> 100 µM	> 100 µM	> 100 µM	–	70.9 µM	> 100 µM	–	–	–	–	–	–	–	–	–
Nc1nn2c(C(Br)Br)cc(C(Br)Br)nc2c1[N+](=O)[O-]	12 µM	4.61 µM	–	–	5.5 µM	2.83 µM	3.06 µM	3.11 µM	–	2.1 µM	–	–	–	–	–	–	–	–	–
C/C(=C\c1ccccc1)C(=O)CCN1CCOCC1	> 100 µM	32 µM	32.8 µM	20.9 µM	> 65 µM	31.2 µM	> 60.1 µM	30.6 µM	–	–	–	–	–	–	–	–	–	–	–
COCOc1ccc(OC)cc1	> 100 µM	> 100 µM	> 100 µM	> 100 µM	> 100 µM	> 100 µM	> 100 µM	> 100 µM	–	–	–	–	–	–	–	–	–	–	–
c1ccc2c(c1)[nH]c1nc3cc(-c4ccc5nc6c(nc5c4)[nH]c4ccccc46)ccc3nc12	> 100 µM	> 100 µM	> 100 µM	> 100 µM	> 100 µM	> 100 µM	> 100 µM	> 100 µM	–	> 100 µM	–	–	–	–	–	–	–	–	–
C1CCSCCCCSCCCCSCCCCSC1	> 100 µM	> 100 µM	> 100 µM	> 100 µM	> 100 µM	> 100 µM	> 100 µM	> 100 µM	–	> 100 µM	–	–	–	–	–	–	–	–	–
CN(C)c1ccc(-c2c(C#N)c(S)n(NS(=O)(=O)c3ccccc3)c(=O)c2C#N)cc1	> 100 µM	> 100 µM	76.2 µM	> 100 µM	–	47.7 µM	72.2 µM	> 100 µM	> 100 µM	> 100 µM	–	–	–	–	–	–	–	–	–
Cc1cn2c(/C=C3/C(=O)Nc4cccc(Cl)c43)c(Cl)nc2s1	> 100 µM	> 100 µM	> 100 µM	> 100 µM	–	> 100 µM	–	> 100 µM	> 100 µM	> 100 µM	–	–	–	–	–	–	–	–	–
